Tests used:
Assay type in all cases: functional
Mus musculus [1] = assay: Estrogenic activity in albino ICI mouse assessed as body […] ratio at 0.1 ug, sc qd for 3 days (reference value: 232.2 +/- 10.4)
Mus musculus [2] = assay: Estrogenic activity in albino ICI mouse assessed as uterus weight at 0.1 ug, sc qd for 3 days (reference value: 28 +/- 2 mg)
Mus musculus [3] = assay: Estrogenic activity in albino ICI mouse assessed as body weight at 0.1 ug, sc qd for 3 days (reference value: 12.1 +/- 0.7 gram)
Mus musculus [4] = assay: Potentiation of stilbestrol-induced estrogenic activity in albino ICI mouse assessed as body […] ratio at 0.1 ug, sc qd for 3 days (reference value: 232.2 +/- 10.4)
Mus musculus [5] = assay: Estrogenic activity in albino ICI mouse assessed as uterus weight at 100 ug, sc qd for 3 days (reference value: 28 +/- 2 mg)
Mus musculus [6] = assay: Potentiation of stilbestrol-induced estrogenic activity in albino ICI mouse assessed as uterus weight at 0.1 ug, sc qd for 3 days (reference value: 28 +/- 2 mg)
Mus musculus [7] = assay: Estrogenic activity in albino ICI mouse assessed as body […] ratio at 100 ug, sc qd for 3 days (reference value: 232.2 +/- 10.4)
Mus musculus [8] = assay: Potentiation of stilbestrol-induced estrogenic activity in albino ICI mouse assessed as body […] ratio at 100 ug, sc qd for 3 days (reference value: 232.2 +/- 10.4)
Mus musculus [9] = assay: Potentiation of stilbestrol-induced estrogenic activity in albino ICI mouse assessed as body weight at 100 ug, sc qd for 3 days (reference value: 12.1 +/- 0.7 gram)
Mus musculus [10] = assay: Potentiation of stilbestrol-induced estrogenic activity in albino ICI mouse assessed as uterus weight at 100 ug, sc qd for 3 days (reference value: 28 +/- 2 mg)
Mus musculus [11] = assay: Estrogenic activity in albino ICI mouse assessed as body weight at 100 ug, sc qd for 3 days (reference value: 12.1 +/- 0.7 gram)
Mus musculus [12] = assay: Potentiation of stilbestrol-induced estrogenic activity in albino ICI mouse assessed as body weight at 0.1 ug, sc qd for 3 days (reference value: 12.1 +/- 0.7 gram)

| SMILES | Ratio (Mus musculus [1]) | Activity (Mus musculus [2]) [mg] | Activity (Mus musculus [3]) [g] | Ratio (Mus musculus [4]) | Activity (Mus musculus [5]) [mg] | Activity (Mus musculus [6]) [mg] | Ratio (Mus musculus [7]) | Ratio (Mus musculus [8]) | Activity (Mus musculus [9]) [g] | Activity (Mus musculus [10]) [mg] | Activity (Mus musculus [11]) [g] | Activity (Mus musculus [12]) [g] |
| --- | --- | --- | --- | --- | --- | --- | --- | --- | --- | --- | --- | --- |
| CC/C(=C(/CC)c1ccc(O)cc1)c1ccc(O)cc1 [DIETHYLSTILBESTROL] | 882 | 148 | 16.8 | – | – | – | – | – | – | – | – | – |
| O=C1CCC2(CC1)Cc1ccccc1C2=O | 252 | 35.5 | 14.1 | 957.1 | 28.3 | 145 | 212.7 | 1366.9 | 14.1 | 192.3 | 13.3 | 15.2 |
